Data on one molecule can be found in US10730881B2, “Fused pyrimidine derivatives” (Hoffmann-La Roche Inc., priority 2016, dated 2020).

Broadly, the EC50 is the midpoint of the concentration-response curve. Read a low EC50 as an effect from little substance.

In the experiment the target is γ-secretase (Homo sapiens, UniProt P49768). Description: Cellular γ-secretase assay (inhibition of Aβ42 secretion, AlphaLisa). In kind it is cell-based. As to conditions: human neuroglioma H4 cells overexpressing human APP695 Swedish double mutation, 24 hr compound incubation. The procedure: Human neuroglioma H4 cells overexpressing human APP695 with the Swedish double mutation (K595N/M596L) were plated at 30,000 cells/well/100 μl in 96-well plates in IMDM media containing 10% FCS, 0.2 mg/l Hygromycin B and incubated at 37° C., 5% CO2. 3-4 hr post plating, compounds are a diluted in media and 50 μl is added as 1.5-fold concentrate to achieve the final concentration. Compound incubation is performed for 24 hr. Final doses typically range from 4 μM down to 0.0013 μM in half-log steps resulting in a eight point dose response curve. Appropriate controls using vehicle only and reference compound were applied to this assay. The final concentration of Me2SO was 0.4%. After incubation at 37° C., 5% CO2, the supernatant was subjected to quantification of secreted Aβ42 by the means of an AlphaLisa assay kit (Human Amyloid beta 1-42 Kit: Cat # A[…], Perkin Elmer). 20 μl of the cell culture supernatant was transferred to an assay plate. […] The assay plate was then read on a Paradigm AlphaLisa Reader using the build-in program with excitation at 680 nm and emission at 570 nm. The measured signals were then used to calculate IC50 values for inhibition of Aβ42 secretion by nonlinear regression fit analysis using XLfit 5.3 software (IDBS).
(In general: Bead proximity is the source of the signal in Alpha formats.)

As for `CNc1nc(N[C@@H]2[C@@H]3CC[C@H]2CN(c2cc(C)ncn2)C3)nc2c1C(C)(C)CN2C1CC(F)(F)C1` [Example 13, 7-(3,3-Difluorocyclobutyl)-N4,5,5-trimethyl-N2-((1R,5S,8s)-3-(6-methylpyrimidin-4-yl)-3-azabicyclo[3.2.1]octan-8-yl)-6,7-dihydro-5H-pyrrolo[2,3-d]pyrimidine-2,4-diamine], the EC50 was 36 nM.
